Values of other authors, collected in patent publication US20210401846A1, “MEDICAMENT, COMPOUND, COMPOSITION AND METHOD FOR TREATING HERPES” (priority 2020, published 2021).
Read-outs that look alike come from different tables or passages of the source.

What was measured:
[1] = not given; remark: listed apart in the source
[2] = molecular target: T1, aldehyde oxidase (Homo sapiens, UniProt Q06278); conditions: in vitro inhibitors of aldehyde oxidase
T1 construct: host or cells: endogenous enzyme in vivo
T1 sequence (Q06278 1-1338): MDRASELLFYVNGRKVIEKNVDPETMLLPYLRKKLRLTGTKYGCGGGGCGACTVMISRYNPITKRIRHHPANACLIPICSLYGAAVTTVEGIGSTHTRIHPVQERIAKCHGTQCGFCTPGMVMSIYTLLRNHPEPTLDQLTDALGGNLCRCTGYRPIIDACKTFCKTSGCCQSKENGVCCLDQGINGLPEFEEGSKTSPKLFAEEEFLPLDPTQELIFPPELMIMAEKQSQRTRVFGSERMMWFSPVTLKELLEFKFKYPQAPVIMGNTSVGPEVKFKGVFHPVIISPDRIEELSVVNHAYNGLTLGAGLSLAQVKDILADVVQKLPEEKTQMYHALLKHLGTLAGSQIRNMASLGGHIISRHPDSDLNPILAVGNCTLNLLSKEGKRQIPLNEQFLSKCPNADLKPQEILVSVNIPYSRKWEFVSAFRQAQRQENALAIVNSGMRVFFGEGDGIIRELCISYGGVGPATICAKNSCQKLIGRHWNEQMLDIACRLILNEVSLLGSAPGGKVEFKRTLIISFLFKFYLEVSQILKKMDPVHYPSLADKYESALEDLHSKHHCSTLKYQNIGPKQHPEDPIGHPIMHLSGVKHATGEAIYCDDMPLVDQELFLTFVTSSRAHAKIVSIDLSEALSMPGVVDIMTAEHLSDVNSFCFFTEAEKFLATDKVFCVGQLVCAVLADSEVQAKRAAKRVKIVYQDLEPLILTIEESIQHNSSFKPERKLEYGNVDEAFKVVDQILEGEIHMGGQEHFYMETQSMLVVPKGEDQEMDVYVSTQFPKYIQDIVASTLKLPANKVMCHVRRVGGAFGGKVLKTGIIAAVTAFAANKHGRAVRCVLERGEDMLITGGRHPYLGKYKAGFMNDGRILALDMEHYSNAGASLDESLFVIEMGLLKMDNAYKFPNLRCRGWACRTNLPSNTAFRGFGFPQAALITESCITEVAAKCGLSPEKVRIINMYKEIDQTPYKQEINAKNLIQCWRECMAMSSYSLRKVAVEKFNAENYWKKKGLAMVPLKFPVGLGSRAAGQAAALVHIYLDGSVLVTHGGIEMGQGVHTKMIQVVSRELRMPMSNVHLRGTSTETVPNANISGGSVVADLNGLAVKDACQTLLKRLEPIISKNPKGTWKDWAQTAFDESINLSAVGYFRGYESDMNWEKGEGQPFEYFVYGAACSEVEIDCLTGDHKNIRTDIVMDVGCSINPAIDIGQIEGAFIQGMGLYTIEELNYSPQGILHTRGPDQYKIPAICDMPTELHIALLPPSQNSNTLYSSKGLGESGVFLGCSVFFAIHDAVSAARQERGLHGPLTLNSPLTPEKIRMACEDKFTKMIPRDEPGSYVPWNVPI

[3] = during therapy
[4] = system: cytochrome P450; conditions: human liver microsomes
[5] = not given; remark: listed apart in the source
[6] = for half-life: 17 patients with herpes zoster
[7] = not given; remark: listed apart in the source
[8] = after single oral 500 mg radiolabeled famciclovir
[9] = single oral 500 mg radiolabeled famciclovir, 3 healthy male volunteers
[10] = oral administration of radiolabeled valacyclovir
[11] = oral single dose 500 mg famciclovir, 7 patients with herpes zoster

Nc1ncc2ncn(CCC(CO)CO)c2n1 [6-deoxy penciclovir]
share of the radioactivity excreted in the urine [8]: 7% | inactive metabolite, % of the dose in the urine (oral administration of famciclovir): 5%

Nc1nc2c(ncn2COCCO)c(=O)[nH]1 [Acyclovir]
Excretion: urine, primarily as acyclovir ([1]; in vivo): 89%

CN/C(=N/CCSCc1nc[nH]c1C)NC#N [Cimetidine]
effects on the formation of penciclovir in vivo [2]: did not show relevant effects

CC(=O)OCC(CCn1cnc2cnc(N)nc21)COC(C)=O [Famciclovir, famciclovir]
famciclovir detected in plasma or urine (oral administration): Little or no | radiolabeled dose collected in urine in the first 6 hours (single oral 500 mg radiolabeled famciclovir): Approximately 60% | administered radioactivity recovered in feces over 72 hours [9]: 27% | administered radioactivity recovered in urine over 72 hours [9]: 73% | clinically apparent liver injury [3]: has not been associated with instances of clinically apparent liver injury | serum ALT elevations [3]: low rate of mild-to-moderate serum ALT elevations | role of cytochrome P450 in famciclovir metabolism [4]: does not play an important role

CC(C)[C@H](N)C(=O)OCCOCn1cnc2c(=O)[nH]c(N)nc21 [Valacyclovir]
Half-life elimination ([1]; normal renal function, adults): ~0.5 h | Bioavailability ([1]; once converted to acyclovir): ~55% | label eliminated in the feces (nonabsorbed drug) [1, 10]: 46% | radiolabel eliminated in the urine [1, 10]: 47% | Absorption ([1]; valacyclovir): Rapid | clinically apparent liver injury [3]: rare instances mild, clinically apparent liver injury

Nc1nc2c(ncn2CCC(CO)CO)c(=O)[nH]1 [penciclovir]
blood/plasma ratio [5]: approximately 1 | bound to plasma proteins ([5]; concentration range 0.1 to 20 mcg/mL): < 20% | dose excreted in the first 6 hours (5 mg/kg radiolabeled penciclovir, 1-hour infusion): 83% | administered radioactivity recovered in urine over 24 hours (5 mg/kg radiolabeled penciclovir, 1-hour infusion, 3 healthy male volunteers): Approximately 94% | accumulation of penciclovir (500 mg famciclovir three times daily for 7 days): no accumulation | share of the radioactivity excreted in the urine (after 5 mg/kg radiolabeled penciclovir infusion): 91% | share of the radioactivity excreted in the urine [8]: 82% | Penciclovir concentrations vs dose (famciclovir 125 mg to 1000 mg single dose): increased in proportion to dose | renal clearance as share of total plasma clearance (intravenous penciclovir): 74.5±8.8% | half-life ([6]; repeated doses): 2.7 ± 1.0 h | half-life ([6]; single dose): 2.8 ± 1.0 h | AUC of penciclovir greater in patients with herpes zoster as compared to healthy volunteers ([6]; human, in vivo): approximately 35% | AUC (mean±SD) [6, 11]: 12100 ± 1700 ng·h/mL | Cmax [6, 11]: 4000 ± 700 ng/mL | tmax [6, 11]: 0.7 ± 0.2 h | Cmax decrease ([7]; capsule formulation of famciclovir administered with food (approx. 910 Kcal, 26% fat)): approximately 50% | decrease in Cmax ([7]; famciclovir 2 hours after a meal vs 2 hours before a meal): 18%

CC(CN1c2ccccc2Sc2ccccc21)N(C)C (centres unmarked) [promethazine]
effects on the formation of penciclovir in vivo [2]: did not show relevant effects
